# Data taken from patent publication EP4238971A1, “SUBSTITUTED ISOXAZOLINE DERIVATIVES” (BASF SE, priority 2022, dated 2023).
# Where two headings read alike, the source gives them in different places.
# How the values were obtained:
# Format in all cases: in vivo
# Anthonomus grandis = experiment: Boll weevil (Anthonomus grandis) control, insect diet in 96-well microtiter plates; conditions: for mortality at 2500 ppm: Anthonomus grandis, 120 h, read-out: mortality in comparison with untreated controls; for mortality in comparison with untreated controls: 2500ppm
# Experimental: (§1) If not otherwise specified, the test solutions were prepared as follows: The active compound was dissolved at the desired concentration in a mixture of 1:1 (vol:vol) distilled water:acetone. The test solution was prepared at the day of use.
# (§2) Test solutions were prepared in general at a concentration of 2500ppm (wt/vol).
# B.1. Boll weevil (Anthonomus grandis)
# For evaluating control of boll weevil, the test unit consisted of 96-well-microtiter plates containing an insect diet and 5-10 A. grandis eggs.
# The compounds were formulated using a solution containing 75% v/v water and 25% v/v DMSO. Different concentrations of formulated compounds were sprayed onto the insect diet at 5µl, using a custom-built micro atomizer, at two replications.
# After application, microtiter plates were incubated at about 25 ± 1°C and about 75 ± 5 % relative humidity for 5 days. Egg and larval mortality were then visually assessed.
# Spodoptera eridania = experiment: Southern armyworm (Spodoptera eridania), 2nd instar larvae, sprayed lima bean plants; conditions: for mortality at 300 ppm: Spodoptera eridania, 96 h, read-out: mortality in comparison with untreated controls; for mortality in comparison with untreated controls: 300ppm, 2nd instar larvae, assessed 4 days after treatment
# Experimental: B.7. Southern armyworm (Spodoptera eridania), 2nd instar larvae
# The active compounds were formulated by a Tecan liquid handler in 100% cyclohexanone as a 10'000 ppm solution supplied in tubes. The 10'000 ppm solution was serially diluted in 100% cyclohexanone to make interim solutions. These served as stock solutions for which final dilutions were made by the Tecan in 50% acetone:50% water (v/v) into 10 or 20ml glass vials. A nonionic surfactant (Kinetic®) was included in the solution at a volume of 0.01% (v/v). The vials were then inserted into an automated electrostatic sprayer equipped with an atomizing nozzle for application to plants/insects. Lima bean plants (variety Sieva) were grown 2 plants to a pot and selected for treatment at the 1st true leaf stage. Test solutions were sprayed onto the foliage by an automated electrostatic plant sprayer equipped with an atomizing spray nozzle. The plants were dried in the sprayer fume hood and then removed from the sprayer. Each pot was placed into perforated plastic bags with a zip closure. Ten to 11 armyworm larvae were placed into the bag and the bags zipped closed. Test plants were maintained in a growth room at about 25°C and about 20-40% relative humidity for 4 days, avoiding direct exposure to fluorescent light (14:10 light:dark photo-period) to prevent trapping of heat inside the bags. Mortality and reduced feeding were assessed 4 days after treatment, compared to untreated control plants.
# Plutella xylostella = experiment: Diamond back moth (Plutella xylostella), cabbage leaf disc dip test; conditions: for mortality at 300 ppm: Plutella xylostella, foliar, read-out: mortality in comparison with untreated controls
# Experimental: B.5. Diamond back moth (Plutella xylostella)
# The active compound was dissolved at the desired concentration in a mixture of 1:1 (vol:vol) distilled water: acetone. Surfactant (Kinetic) was added at a rate of 0.01% (vol/vol). The test solution was prepared at the day of use. Cabbage leaf discs (60mm in diameter) were dipped in test solution and air-dried. Treated leaves were placed in petri dishes lined with moistened filter paper and inoculated with ten 3rd instar larvae. Mortality was recorded 72 hours after treatment. Feeding damages were also recorded using a scale of 0-100%.
# Aedes aegypti = experiment: whole plant or invertebrate; conditions: larval mortality visually assessed after 2 days; for mortality at 2500 ppm: Aedes aegypti, 48 h, read-out: mortality in comparison with untreated controls; for mortality in comparison with untreated controls: 2500ppm
# Experimental: as §1, §2
# B.4. Yellow fever mosquito (Aedes aegypti)
# For evaluating control of Yellow Fever Mosquito, the test unit consisted of 96-well-microtiter plates containing 200µl of tap water per well and 5-15 freshly hatched A. aegypti larvae. The active compounds were formulated using a solution containing 75% (v/v) water and 25% (v/v) DMSO. Different concentrations of formulated compounds or mixtures were sprayed onto the insect diet at 2.5µl, using a custom-built micro atomizer, at two replications.
# After application, microtiter plates were incubated at 28 ± 1°C, 80 ± 5 % RH for 2 days. Larval mortality was then visually assessed.
# Heliothis virescens = experiment: Tobacco budworm (Heliothis virescens) control, insect diet in 96-well microtiter plates; conditions: for mortality at 2500 ppm: Heliothis virescens, 120 h, read-out: mortality in comparison with untreated controls
# Experimental: as §1, §2
# B.3. Tobacco budworm (Heliothis virescens)
# For evaluating control of Tobacco Budworm, the test unit consisted of 96-well-microtiter plates containing an insect diet and 15-25 H. virescens eggs. The compounds were formulated using a solution containing 75% v/v water and 25% v/v DMSO. Different concentrations of formulated compounds were sprayed onto the insect diet at 10µl, using a custom-built micro atomizer, at two replications. After application, microtiter plates were incubated at about 28 ± 1°C and about 80 ± 5 % relative humidity for 5 days. Egg and larval mortality was then visually assessed.
# Dichromothrips corbetti = experiment: Orchid thrips (Dichromothrips corbetti), floral-immersion technique; conditions: for mortality at 300 ppm: Dichromothrips corbetti, read-out: mortality in comparison with untreated controls
# Experimental: B.6. Orchid thrips (Dichromothrips corbetti)
# Dichromothrips corbetti adults used for bioassay were obtained from a colony maintained continuously under laboratory conditions. For testing purposes, the test compound was diluted in a 1:1 mixture of acetone:water (vol:vol), plus Kinetic at a rate of 0.01% v/v.
# Thrips potency of each compound was evaluated by using a floral-immersion technique. Each orchid petal was dipped into treatment solution and allowed to dry in Petri dishes. Treated petals were placed into individual re-sealable plastic along with about 20 adult thrips. All test arenas were held under dark condition and a temperature of about 28°C for duration of the assay. The percent mortality was recorded 72 hours after treatment.
# Myzus persicae = experiment: Green peach aphid (Myzus persicae), mixed life stages, systemic test via artificial diet under membrane; conditions: for mortality at 2500 ppm: Myzus persicae, 72 h, read-out: mortality in comparison with untreated controls
# Experimental: as §1, §2
# B.2. Green peach aphid (Myzus persicae) (mixed life stages)
# For evaluating control of Green Peach Aphid through systemic means the test unit consisted of 96-well-microtiter plates containing liquid artificial diet under an artificial membrane. The compounds were formulated using a solution containing 75% v/v water and 25% v/v DMSO. Different concentrations of formulated compounds were pipetted into the aphid diet, using a custom-built pipette, at two replications. After application, 5 - 8 adult aphids were placed on the artificial membrane inside the microtiter plate wells. The aphids were then allowed to suck on the treated aphid diet and incubated at about 23 ± 1°C and about 50 ± 5 % relative humidity for 3 days. Aphid mortality and fecundity was then visually assessed.
# [1] = egg and larval mortality visually assessed after 5 days
# [2] = 300ppm, 3rd instar larvae, mortality recorded 72 hours after treatment
# [3] = 2500ppm, egg and larval mortality visually assessed after 5 days
# [4] = 2500ppm, aphid mortality visually assessed after 3 days
# [5] = 300ppm, adult thrips, mortality recorded 72 hours after treatment
compound,measurement,setting,value
"CCOC(=O)N(C1=NOC(c2cc(Cl)c(F)c(Cl)c2)(C(F)(F)F)C1)c1ccc(Cl)c(-n2cnc(C(F)(F)F)c2)c1 (stereo not shown) [I-26, ethyl N-[4-chloro-3-[4-(trifluoromethyl)imidazol-1-yl]phenyl]-N-[5-(3,5-dichloro-4-fluoro-phenyl)-5-(trifluoromethyl)-4H-isoxazol-3-yl]carbamate]",mortality at 2500 ppm,Anthonomus grandis,≥ 75%
same,mortality at 300 ppm,Spodoptera eridania,≥ 75%
same,mortality at 300 ppm,Plutella xylostella; 72 h,≥ 75%
same,mortality at 2500 ppm,Aedes aegypti,≥ 75%
same,mortality at 2500 ppm,Heliothis virescens,≥ 75%
same,mortality at 300 ppm,Dichromothrips corbetti; 72 h,≥ 75%
"CCN(C1=NOC(c2cc(Cl)c(F)c(Cl)c2)(C(F)(F)F)C1)c1ccc(C#N)c(-n2cncn2)c1 (stereo not shown) [I-20, 4-[[5-(3,5-dichloro-4-fluoro-phenyl)-5-(trifluoromethyl)-4H-isoxazol-3-yl]-ethyl-amino]-2-(1,2,4-triazol-1-yl)benzonitrile]",mortality at 2500 ppm,Anthonomus grandis,≥ 75%
same,mortality at 300 ppm,Spodoptera eridania,≥ 75%
same,mortality at 300 ppm,Plutella xylostella; 72 h,≥ 75%
same,mortality at 2500 ppm,Aedes aegypti,≥ 75%
same,mortality at 2500 ppm,Heliothis virescens,≥ 75%
same,mortality at 300 ppm,Dichromothrips corbetti; 72 h,≥ 75%
N#Cc1ccc(NC2=NOC(c3ccc(F)c(Cl)c3)(C(F)(F)F)C2)cc1-n1cncn1 (stereo not shown) [I-6],mortality in comparison with untreated controls,Anthonomus grandis; [1],at least 75%
same,mortality in comparison with untreated controls,Spodoptera eridania,at least 75%
same,mortality in comparison with untreated controls,Plutella xylostella; [2],at least 75%
same,mortality in comparison with untreated controls,Aedes aegypti,at least 75%
same,mortality in comparison with untreated controls,Heliothis virescens; [3],at least 75%
same,mortality in comparison with untreated controls,Myzus persicae; [4],at least 75%
same,mortality in comparison with untreated controls,Dichromothrips corbetti; [5],at least 75%
"N#Cc1ccc(NC2=NOC(c3cc(Cl)c(F)c(Cl)c3)(C(F)(F)F)C2)cc1-n1cncn1 (stereo not shown) [I-4, 4-[[5-(3,5-dichloro-4-fluoro-phenyl)-5-(trifluoromethyl)-4H-isoxazol-3-yl]amino]-2-(1,2,4-triazol-1-yl)benzonitrile]",mortality at 2500 ppm,Anthonomus grandis,≥ 75%
same,mortality at 300 ppm,Spodoptera eridania,≥ 75%
same,mortality at 300 ppm,Plutella xylostella; 72 h,≥ 75%
same,mortality at 2500 ppm,Aedes aegypti,≥ 75%
same,mortality at 2500 ppm,Heliothis virescens,≥ 75%
same,mortality at 2500 ppm,Myzus persicae,≥ 75%
same,mortality at 300 ppm,Dichromothrips corbetti; 72 h,≥ 75%
C#CCN(C1=NOC(c2ccc(F)c(Cl)c2)(C(F)(F)F)C1)c1ccc(C#N)c(-n2cncn2)c1 (stereo not shown) [I-12],mortality in comparison with untreated controls,Anthonomus grandis; [1],at least 75%
same,mortality in comparison with untreated controls,Spodoptera eridania,at least 75%
same,mortality in comparison with untreated controls,Plutella xylostella; [2],at least 75%
same,mortality in comparison with untreated controls,Aedes aegypti,at least 75%
same,mortality in comparison with untreated controls,Heliothis virescens; [3],at least 75%
same,mortality in comparison with untreated controls,Myzus persicae; [4],at least 75%
same,mortality in comparison with untreated controls,Dichromothrips corbetti; [5],at least 75%
CN(C1=NOC(c2ccc(F)c(Cl)c2)(C(F)(F)F)C1)c1ccc(C#N)c(-n2cncn2)c1 (stereo not shown) [I-9],mortality in comparison with untreated controls,Anthonomus grandis; [1],at least 75%
same,mortality in comparison with untreated controls,Spodoptera eridania,at least 75%
same,mortality in comparison with untreated controls,Plutella xylostella; [2],at least 75%
same,mortality in comparison with untreated controls,Aedes aegypti,at least 75%
same,mortality in comparison with untreated controls,Heliothis virescens; [3],at least 75%
same,mortality in comparison with untreated controls,Myzus persicae; [4],at least 75%
same,mortality in comparison with untreated controls,Dichromothrips corbetti; [5],at least 75%
COCN(C1=NOC(c2cc(Cl)c(F)c(Cl)c2)(C(F)(F)F)C1)c1ccc(C#N)c(-n2cncn2)c1 (stereo not shown) [I-22],mortality in comparison with untreated controls,Plutella xylostella; [2],at least 75%
same,mortality in comparison with untreated controls,Dichromothrips corbetti; [5],at least 75%
N#Cc1ccc(N(CC2CC2)C2=NOC(c3ccc(F)c(Cl)c3)(C(F)(F)F)C2)cc1-n1cncn1 (stereo not shown) [I-11],mortality in comparison with untreated controls,Anthonomus grandis; [1],at least 75%
same,mortality in comparison with untreated controls,Spodoptera eridania,at least 75%
same,mortality in comparison with untreated controls,Plutella xylostella; [2],at least 75%
same,mortality in comparison with untreated controls,Aedes aegypti,at least 75%
same,mortality in comparison with untreated controls,Heliothis virescens; [3],at least 75%
same,mortality in comparison with untreated controls,Myzus persicae; [4],at least 75%
same,mortality in comparison with untreated controls,Dichromothrips corbetti; [5],at least 75%
"O=C(NCC(F)(F)F)c1cnn(-c2cc(NC3=NOC(c4cc(Cl)c(F)c(Cl)c4)(C(F)(F)F)C3)ccc2Cl)c1 (stereo not shown) [I-18, 1-[2-chloro-5-[[5-(3,5-dichloro-4-fluoro-phenyl)-5-(trifluoromethyl)-4H-isoxazol-3-yl]amino]phenyl]-N-(2,2,2-trifluoroethyl)pyrazole-4-carboxamide]",mortality at 2500 ppm,"Anthonomus grandis; 2500 ppm, egg and larval mortality visually assessed after 5 days",≥ 75%
same,mortality at 300 ppm,Plutella xylostella; [2],≥ 75%
same,mortality at 2500 ppm,Heliothis virescens; [3],≥ 75%
same,mortality at 2500 ppm,Myzus persicae; [4],≥ 75%
same,mortality at 300 ppm,Dichromothrips corbetti; [5],≥ 75%
"Fc1c(Cl)cc(C2(C(F)(F)F)CC(Nc3ccc(Cl)c(-n4cnc(C(F)(F)F)c4)c3)=NO2)cc1Cl (stereo not shown) [I-16, N-[4-chloro-3-[4-(trifluoromethyl)imidazol-1-yl]phenyl]-5-(3,5-dichloro-4-fluoro-phenyl)-5-(trifluoromethyl)-4H-isoxazol-3-amine]",mortality at 2500 ppm,Anthonomus grandis,≥ 75%
same,mortality at 300 ppm,Plutella xylostella; 72 h,≥ 75%
same,mortality at 2500 ppm,Aedes aegypti,≥ 75%
same,mortality at 2500 ppm,Heliothis virescens,≥ 75%
same,mortality at 2500 ppm,Myzus persicae,≥ 75%
same,mortality at 300 ppm,Dichromothrips corbetti; 72 h,≥ 75%
CCN(C1=NOC(c2ccc(F)c(Cl)c2)(C(F)(F)F)C1)c1ccc(C#N)c(-n2cncn2)c1 (stereo not shown) [I-10],mortality in comparison with untreated controls,Anthonomus grandis; [1],at least 75%
same,mortality in comparison with untreated controls,Spodoptera eridania,at least 75%
same,mortality in comparison with untreated controls,Plutella xylostella; [2],at least 75%
same,mortality in comparison with untreated controls,Aedes aegypti,at least 75%
same,mortality in comparison with untreated controls,Heliothis virescens; [3],at least 75%
same,mortality in comparison with untreated controls,Myzus persicae; [4],at least 75%
same,mortality in comparison with untreated controls,Dichromothrips corbetti; [5],at least 75%
"N-[4-chloro-3-[4-(trifluoromethyl)pyrazol-1-yl]phenyl]-5-(3,5-dichloro-4-fluoro-phenyl)-N-(methoxymethyl)-5-(trifluoromethyl)-4H-isoxazol-3-amine [I-23]",mortality in comparison with untreated controls,Spodoptera eridania,at least 75%
same,mortality in comparison with untreated controls,Plutella xylostella; [2],at least 75%
same,mortality in comparison with untreated controls,Dichromothrips corbetti; [5],at least 75%
